Measured values: US20260027073A1, “USE OF SMALL-MOLECULE COMPOUND HAVING NAPHTHYLAMINE STRUCTURE” (HANGZHOU PHECDAMED CO., LTD., priority 2023, published 2026)
Values joined by “and” are separate entries in the source; they are usually repeats but may differ in a detail not shown here. Equal entries are not always repeated.

Tests used:
[1] = test system: rats of adenine induced kidney injury model; assay: Adenine-induced kidney injury; format: in vivo, SD rats
Procedure: Adenine-induced kidney injury is an animal model of chronic kidney injury. The model was prepared as follows: 1500 mg/kg of potassium oxonate and 50 mg/kg of adenine were ground and suspended in 0.5% carboxymethylcellulose sodium (CMC-Na) solution and gavaged once a day in a volume of 10 mL/kg for 180-200 g male SD rats, and an equal dose of 0.5% CMC-Na solution was gavaged for the sham group. After 1 week of modeling, serum creatinine (Cr) was measured weekly to determine whether the model was successful or not; in this experiment, there was a statistically significant difference in serum creatinine elevation on the 21st day of modeling compared with that of the sham group, at this time, administration in group was initiated, and the shock modeling with 1500 mg/kg of potassium oxonate and 50 mg/kg of adenine was continued daily along with the administration. The test was divided into three groups according to the serum creatinine level, sham operation group (sham group, without adenine modeling and vehicle treatment by oral gavage), control group (model control group, vehicle treatment by oral gavage), and 15 mg/kg group (15 mg/kg compound I-1 by oral gavage), and the dosage was once a day in the volume of 10 ml/kg for 21 consecutive days. […] At the end of the administration, blood was collected from the heart, and the blood was centrifuged at 12000 g for 10 minutes at 4° C. after standing at room temperature for 45 minutes, and the supernatant (serum) was extracted to measure the levels of creatinine and uric acid in the serum. After euthanasia of rats at endpoint of test, rats were dissected and kidneys were taken, of which 4 kidneys were fixed with 4% paraformaldehyde for 48 h, embedded in paraffin, sectioned, and HE stained, the specific staining operation was as described above. The left kidney tissue was taken and ground, and the inflammatory factors IL-10 and TNFα were detected by Elisa method.

[2] = In vitro liver microsomal stability test
Procedure: Ketanserin was selected as the reference compound. The specific method was as follows:
0.1 M K3PO4 (pH 7.4) buffer and 3×NADPH stock solution (6 mM, 5 mg/mL) were configured and preheated in a 37° C. water bath; configuration of the test compounds and the control compounds (spiking solution): adding 5 μL of the compound stock solution ([…]) into 95 μL of acetonitrile; configuration of 1.5 μM spiking solution in microsomes (0.75 mg/mL): adding 1.5 μL of spiking solution and 18.75 μL of liver microsomal solution (20 mg/mL) into 479.75 μL of K3PO4 buffer; adding 30 μL of spiking solution in microsomes into the multiwell plate, and incubating at 37° C. for 5 min; adding 15 μL of NADPH storage solution into each well to start to react, and timing; adding 150 μL of acetonitrile solution containing IS at 0 min, 5 min, 15 min, 30 min, and 45 min, respectively, stopping the reaction; oscillating for 10 min, and then centrifuging at 6,000 rpm for 15 min; taking 80 μL of supernatant from each well for LC/MS detection, and calculating T1/2.

[3] = test system: rats with 5/6 nephrectomy; assay: 5/6 nephrectomy-induced renal injury; format: in vivo, SD rats
Procedure: 5/6 nephrectomy directly leads to a large reduction of renal units, high workload of residual renal units, and combined hypertension (or non-hypertension), and these features are similar to the symptoms of patients with clinical nephrectomy, CKD hypertensive syndrome, and solitary kidney, and like, and the pathological changes are dominated by glomerulosclerosis and tubulo-fibrosis, which is a good model for the study of CKD. The model was prepared as follows, 230-250 g male SD rats were anesthetized with isoflurane gas, and an incision of about 3 cm at 1 cm left and below of the cribriform ridge corner was made, fully exposing the left kidney, and after exposing the kidney in the sham group, the muscle and skin were sutured with sutures, during which there was no ligation and no resection. In the model group, about ⅓ of the cortex of the upper and lower left kidney was cut with ophthalmic surgical scissors, and was pressed with the absorbable gelatin sponge to stop bleeding for 3 min, then the hemostatic clip was released, and whether there is obvious bleeding was observed and the residual kidney was reset, and the muscle and skin were sutured with sutures. After 1 week, the second surgery was performed, and after fully exposing the right kidney, the renal pedicle and the ureter were ligated, and the right kidney was resected. Similarly, in the sham group, after exposing the kidney, the muscle and skin were sutured with sutures, during which there was no ligation and no resection. Penicillin (80 kU/rat) was routinely injected for three days after surgery. […] In the experiment, 10 d after the end of the right nephrectomy surgery, the serum creatinine level of rats increased, which was statistically significant compared to the sham group, and began to be administered in groups.
The experiments were conducted in sham group (exposing both kidneys without resection), Control group (model group, given vehicle treatment by oral gavage), and 15 mg/kg I-1 group (15 mg/kg by oral gavage), respectively, during the experimental period, a drug was administered once a day for a total of 27 days, and the 24-hour urine of the rats in each group was collected by metabolism cages on the 28th day to measure the volume of urine, urine creatinine, and urine protein. At the same time, blood was collected from the heart, and the blood was centrifuged at 12000 g for 10 min at 4° C. after standing at room temperature for 45 min, the supernatant (serum) was taken to measure the creatinine level in the serum, and finally the creatinine clearance was calculated. After euthanasia of rats at endpoint of the test, the kidneys were dissected and removed, in which four kidneys of rats were fixed with 4% paraformaldehyde for 48 h, paraffin-embedded, sectioned, and HE stained as described above.

[4] = Degree of lesion +++ (severe lesions), 15 mg/kg
[5] = Degree of lesion ± (slight lesions), 15 mg/kg

With `O=C(O)C[S+]([O-])c1cc(NS(=O)(=O)c2ccc(Br)cc2)c2ccccc2c1O` (stereo not shown) [I-1] the body weight ([1]; 15 mg/kg oral gavage, 21 days, FIG. 9) was “no significant change”, the “TNF-α level in kidney tissues” value ([1]; 15 mg/kg, 21 days, FIG. 12) was “significantly decreased” and the “renal histopathology (HE staining)” value ([1]; 15 mg/kg, 21 days, FIG. 13) was “improved the histopathology of adenine-induced renal injury to some extent”. The “serum urea nitrogen level” value ([1]; 15 mg/kg, 21 days, P<0.05, FIG. 11) was “significantly decreased”, the “Serum creatinine decreased by” value ([1]; 15 mg/kg, after 21 days, P<0.05, FIG. 10) was 20.7% and the “Renal lesion (number of kidneys, n = 4)” value ([1]; Degree of lesion + (mild lesions), 15 mg/kg) was 1/4 and 1. For the same compound, the “Renal lesion (number of kidneys, n = 4)” value ([1]; Degree of lesion ++ (moderate lesions), 15 mg/kg) was 3/4 and 3, the “Renal lesion (number of kidneys, n = 4)” value [1, 4] was 0 and the “Renal lesion (number of kidneys, n = 4)” value [1, 5] was 0. The “Renal lesion (number of kidneys, n = 4)” value ([1]; Degree of lesion − (no lesions), 15 mg/kg) was 0, the “liver microsomal stability (elimination half-life T1/2)” value ([2]; microsomes) was “superior liver microsomal stability” and the “24 h urine protein content” value ([3]; 15 mg/kg oral gavage, 27 days, FIG. 6) was “significantly reduced”. For the same compound, the blood creatinine level ([3]; 15 mg/kg oral gavage, 27 days, P<0.001, FIG. 5) was “significantly reduced”, the body weight ([3]; 15 mg/kg oral gavage, 27 days, vs model group, P<0.05, FIG. 4) was “significant increase” and the “degree of lesions in the renal tissues (HE staining)” value ([3]; 15 mg/kg, 27 days, FIG. 8) was “improved the degree of lesions”. For the same compound, the creatinine clearance rate ([3]; 15 mg/kg, 27 days, vs model control, FIG. 7) was “improvement trend”, the “Renal lesions (number of kidneys, n = 4)” value [3, 4] was 0 and the “Renal lesions (number of kidneys, n = 4)” value [3, 5] was 0. The “Renal lesions (number of kidneys, n = 4)” value ([3]; Degree of lesion − (no lesions seen), 15 mg/kg) was 0.

For `O=C(O)CSc1cc(NS(=O)(=O)c2ccc(Br)cc2)c2ccccc2c1O` [UMI-77, reference compound], the “treatment of adenine-induced renal injury compared with I-1” value ([1]; UMI-77 vs I-1) was “less effective”, the “liver microsomal stability (elimination half-life T1/2)” value ([2]; in vitro mouse or human liver microsomal environment, FIG. 19) was “unstable” and the “protection against 5/6 nephrectomy-induced renal injury compared with I-1 group” value ([3]; UMI-77 vs I-1) was “less protective”.
